According to ChEMBL document CHEMBL1759974, “Discovery of triazine-benzimidazoles as selective inhibitors of mTOR” (Bioorg Med Chem Lett, 2011):
≈ marks a conversion by molar mass, not a printed value. One block for each compound: values may come before it.

Experiments:
[1] = target: T1, Phosphatidylinositol 4,5-bisphosphate 3-kinase catalytic subunit delta isoform (Homo sapiens, UniProt O00329)
T1 sequence (O00329 whole entry): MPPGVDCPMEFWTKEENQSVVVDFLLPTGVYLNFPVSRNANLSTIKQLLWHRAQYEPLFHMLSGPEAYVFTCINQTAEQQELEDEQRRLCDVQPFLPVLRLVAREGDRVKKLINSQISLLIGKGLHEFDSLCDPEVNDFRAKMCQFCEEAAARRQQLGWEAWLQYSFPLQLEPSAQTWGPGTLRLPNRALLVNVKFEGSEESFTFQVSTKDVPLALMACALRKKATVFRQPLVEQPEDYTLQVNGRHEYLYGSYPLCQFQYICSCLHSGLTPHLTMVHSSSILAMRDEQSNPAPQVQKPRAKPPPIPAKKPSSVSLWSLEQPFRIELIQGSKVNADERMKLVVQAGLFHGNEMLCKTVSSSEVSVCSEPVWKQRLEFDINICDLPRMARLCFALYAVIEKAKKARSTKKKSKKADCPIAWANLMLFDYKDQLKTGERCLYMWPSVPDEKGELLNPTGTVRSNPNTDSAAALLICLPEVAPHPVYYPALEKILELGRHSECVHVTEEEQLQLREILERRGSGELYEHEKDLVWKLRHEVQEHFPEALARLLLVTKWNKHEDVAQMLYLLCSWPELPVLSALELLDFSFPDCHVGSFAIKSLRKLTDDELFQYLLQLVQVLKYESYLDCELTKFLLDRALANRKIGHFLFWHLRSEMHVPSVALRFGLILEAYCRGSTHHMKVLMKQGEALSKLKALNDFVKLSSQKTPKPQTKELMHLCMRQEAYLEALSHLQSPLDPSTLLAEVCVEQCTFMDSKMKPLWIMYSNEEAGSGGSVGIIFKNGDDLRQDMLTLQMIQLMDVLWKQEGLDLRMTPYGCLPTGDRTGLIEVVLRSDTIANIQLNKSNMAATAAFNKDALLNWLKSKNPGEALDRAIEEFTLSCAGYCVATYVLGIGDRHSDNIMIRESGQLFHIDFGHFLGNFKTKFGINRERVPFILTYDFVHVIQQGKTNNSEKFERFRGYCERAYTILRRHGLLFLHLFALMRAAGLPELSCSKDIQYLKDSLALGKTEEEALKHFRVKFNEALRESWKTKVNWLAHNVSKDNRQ

[2] = Half life in Sprague-Dawley rat at 5 mg/kg, po; format: ADME, organism-based; design: dose 5 mg/kg, route oral; conditions: in vivo
[3] = target: T2, Serine/threonine-protein kinase mTOR (Homo sapiens, UniProt P42345)
[4] = target: T2, Serine/threonine-protein kinase mTOR; remark: listed apart in the source
[5] = target: T2, Serine/threonine-protein kinase mTOR; remark: listed apart in the source
Description: Inhibition of mTOR in human U-87 cells assessed as inhibition of phosphorylation of AKT at S473

[6] = target: Phosphatidylinositol 4,5-bisphosphate 3-kinase catalytic subunit gamma isoform (Homo sapiens, UniProt P48736)
[7] = target: Phosphatidylinositol 4,5-bisphosphate 3-kinase catalytic subunit alpha isoform (Homo sapiens, UniProt P42336)
Rattus norvegicus [8] = test: AUC in Sprague-Dawley rat at 5 mg/kg, po; format: ADME, organism-based, Plasma; design: dose 5 mg/kg, route oral; conditions: in vivo
[9] = target: Phosphatidylinositol 4,5-bisphosphate 3-kinase catalytic subunit beta isoform (Homo sapiens, UniProt P42338)
Rattus norvegicus [10] = test: Inhibition of HGF induced mTOR activation in ip dosed rat liver assessed as inhibition of AKT phosphorylation at S473 administered 6 hrs prior to HGF stimulation by MSD analysis; format: functional, organism-based
[11] = Plasma protein binding in Sprague-Dawley rat at 1 mg/kg, iv and 2 mg/kg, po; format: ADME, organism-based; conditions: read-out: PPB (converted)
[12] = Solubility of compound in 0.01 N HCL; format: physicochemical; conditions: 0.01 N HCl; read-out: solubility
[13] = Oral bioavailability in Sprague-Dawley rat at 2 mg/kg; format: ADME, organism-based; conditions: in vivo
Rattus norvegicus [14] = test: AUC in Sprague-Dawley rat at 1 mg/kg, iv; format: ADME, organism-based, Plasma; design: dose 1 mg/kg, route intravenous; conditions: in vivo
[15] = AUC in rat at 50 mg/kg, po; format: ADME, organism-based; design: dose 50 mg/kg, route oral; conditions: plasma
[16] = target: Serine/threonine-protein kinase mTOR (Rattus norvegicus) (UniProt P42346); test: Inhibition of HGF induced mTOR activation in rat liver assessed as inhibition of S6RP phosphorylation at 100 mg/kg, ip 6 hrs prior to HGF stimulation by MSD analysis; format: organism-based; design: dose 100 mg/kg
Rattus norvegicus [17] = test: AUC in rat at 2 mg/kg, po; format: ADME, organism-based, Plasma; design: dose 2 mg/kg, route oral; conditions: in vivo
[18] = Volume of distribution at steady state in Sprague-Dawley rat at 1 mg/kg, iv and 2 mg/kg, po; format: ADME, organism-based; conditions: in vivo, read-out: Vdss
[19] = target: Serine/threonine-protein kinase mTOR (Rattus norvegicus) (UniProt P42346); test: Inhibition of HGF induced mTOR activation in rat liver assessed as inhibition of AKT phosphorylation at S473 at 30 mg/kg, ip 6 hrs prior to HGF stimulation by MSD analysis; format: organism-based; design: dose 30 mg/kg; scale not given: the % may be the effect or the level left
[20] = target: Serine/threonine-protein kinase mTOR (Rattus norvegicus) (UniProt P42346); test: Inhibition of HGF induced mTOR activation in rat liver assessed as inhibition of AKT phosphorylation at S473 at 100 mg/kg, ip 6 hrs prior to HGF stimulation by MSD analysis; format: organism-based; design: dose 100 mg/kg
[21] = Half life in Sprague-Dawley rat at 1 mg/kg, iv; format: ADME, organism-based; design: dose 1 mg/kg, route intravenous; conditions: in vivo
[22] = Clearance in Sprague-Dawley rat at 1 mg/kg, iv and 2 mg/kg, po; format: ADME, organism-based; conditions: in vivo

Phosphatidylinositol 4,5-bisphosphate 3-kinase catalytic subunit alpha isoform, sequence (P42336 whole entry, canonical isoform): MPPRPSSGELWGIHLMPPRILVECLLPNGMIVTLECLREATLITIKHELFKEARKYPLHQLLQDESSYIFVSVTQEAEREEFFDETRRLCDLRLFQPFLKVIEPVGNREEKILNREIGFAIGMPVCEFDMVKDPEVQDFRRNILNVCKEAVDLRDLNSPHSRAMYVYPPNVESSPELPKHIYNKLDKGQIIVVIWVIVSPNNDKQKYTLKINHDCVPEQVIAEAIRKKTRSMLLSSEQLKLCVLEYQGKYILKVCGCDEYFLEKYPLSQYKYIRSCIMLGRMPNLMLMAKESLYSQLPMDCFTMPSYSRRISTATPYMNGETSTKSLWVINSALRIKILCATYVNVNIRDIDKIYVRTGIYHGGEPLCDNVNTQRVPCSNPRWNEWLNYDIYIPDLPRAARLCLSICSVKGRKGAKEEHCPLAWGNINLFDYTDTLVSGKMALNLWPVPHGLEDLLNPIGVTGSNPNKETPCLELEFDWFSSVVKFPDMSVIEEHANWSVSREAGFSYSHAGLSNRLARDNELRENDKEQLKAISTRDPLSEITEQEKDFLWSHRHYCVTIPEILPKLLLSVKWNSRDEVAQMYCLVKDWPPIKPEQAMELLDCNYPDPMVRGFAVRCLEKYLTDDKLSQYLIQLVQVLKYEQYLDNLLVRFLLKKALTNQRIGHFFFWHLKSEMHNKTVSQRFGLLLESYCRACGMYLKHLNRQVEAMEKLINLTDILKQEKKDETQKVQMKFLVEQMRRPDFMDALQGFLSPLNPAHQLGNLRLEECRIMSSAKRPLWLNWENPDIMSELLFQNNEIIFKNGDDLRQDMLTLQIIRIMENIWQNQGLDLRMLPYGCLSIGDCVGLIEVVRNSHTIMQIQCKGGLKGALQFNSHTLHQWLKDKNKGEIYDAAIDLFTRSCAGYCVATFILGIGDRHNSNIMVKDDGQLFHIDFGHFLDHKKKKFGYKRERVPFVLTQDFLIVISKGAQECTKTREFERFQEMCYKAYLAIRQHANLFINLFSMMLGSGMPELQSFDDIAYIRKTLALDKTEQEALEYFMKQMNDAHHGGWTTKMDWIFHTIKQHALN
Phosphatidylinositol 4,5-bisphosphate 3-kinase catalytic subunit beta isoform, sequence (P42338 whole entry, canonical isoform): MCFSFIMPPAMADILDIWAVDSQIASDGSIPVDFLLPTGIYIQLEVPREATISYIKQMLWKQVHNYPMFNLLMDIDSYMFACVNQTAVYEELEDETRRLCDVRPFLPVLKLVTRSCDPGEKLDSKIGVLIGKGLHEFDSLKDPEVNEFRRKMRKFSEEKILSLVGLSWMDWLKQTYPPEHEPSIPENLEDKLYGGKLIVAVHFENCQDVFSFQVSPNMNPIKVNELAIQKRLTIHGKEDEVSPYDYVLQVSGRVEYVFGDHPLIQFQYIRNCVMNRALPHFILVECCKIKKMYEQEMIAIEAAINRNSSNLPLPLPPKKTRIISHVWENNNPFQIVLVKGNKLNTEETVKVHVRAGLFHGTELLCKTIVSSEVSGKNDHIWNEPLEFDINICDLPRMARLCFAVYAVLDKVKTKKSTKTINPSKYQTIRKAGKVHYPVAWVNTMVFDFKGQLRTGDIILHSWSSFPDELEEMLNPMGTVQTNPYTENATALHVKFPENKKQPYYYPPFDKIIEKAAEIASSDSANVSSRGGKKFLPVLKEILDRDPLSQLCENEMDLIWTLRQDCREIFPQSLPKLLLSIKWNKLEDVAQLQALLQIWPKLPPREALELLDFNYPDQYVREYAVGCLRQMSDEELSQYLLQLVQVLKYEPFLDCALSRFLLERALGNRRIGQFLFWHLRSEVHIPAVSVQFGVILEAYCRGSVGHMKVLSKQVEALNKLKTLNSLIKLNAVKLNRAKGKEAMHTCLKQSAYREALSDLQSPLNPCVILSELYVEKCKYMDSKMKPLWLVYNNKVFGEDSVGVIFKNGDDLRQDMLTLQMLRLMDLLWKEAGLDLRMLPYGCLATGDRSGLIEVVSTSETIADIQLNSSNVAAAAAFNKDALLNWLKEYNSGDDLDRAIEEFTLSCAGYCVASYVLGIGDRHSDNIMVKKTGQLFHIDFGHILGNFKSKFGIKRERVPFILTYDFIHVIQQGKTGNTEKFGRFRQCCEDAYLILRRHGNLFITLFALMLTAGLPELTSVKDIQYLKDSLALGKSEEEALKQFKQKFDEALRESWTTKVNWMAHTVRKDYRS
Phosphatidylinositol 4,5-bisphosphate 3-kinase catalytic subunit gamma isoform, sequence (P48736 whole entry, canonical isoform): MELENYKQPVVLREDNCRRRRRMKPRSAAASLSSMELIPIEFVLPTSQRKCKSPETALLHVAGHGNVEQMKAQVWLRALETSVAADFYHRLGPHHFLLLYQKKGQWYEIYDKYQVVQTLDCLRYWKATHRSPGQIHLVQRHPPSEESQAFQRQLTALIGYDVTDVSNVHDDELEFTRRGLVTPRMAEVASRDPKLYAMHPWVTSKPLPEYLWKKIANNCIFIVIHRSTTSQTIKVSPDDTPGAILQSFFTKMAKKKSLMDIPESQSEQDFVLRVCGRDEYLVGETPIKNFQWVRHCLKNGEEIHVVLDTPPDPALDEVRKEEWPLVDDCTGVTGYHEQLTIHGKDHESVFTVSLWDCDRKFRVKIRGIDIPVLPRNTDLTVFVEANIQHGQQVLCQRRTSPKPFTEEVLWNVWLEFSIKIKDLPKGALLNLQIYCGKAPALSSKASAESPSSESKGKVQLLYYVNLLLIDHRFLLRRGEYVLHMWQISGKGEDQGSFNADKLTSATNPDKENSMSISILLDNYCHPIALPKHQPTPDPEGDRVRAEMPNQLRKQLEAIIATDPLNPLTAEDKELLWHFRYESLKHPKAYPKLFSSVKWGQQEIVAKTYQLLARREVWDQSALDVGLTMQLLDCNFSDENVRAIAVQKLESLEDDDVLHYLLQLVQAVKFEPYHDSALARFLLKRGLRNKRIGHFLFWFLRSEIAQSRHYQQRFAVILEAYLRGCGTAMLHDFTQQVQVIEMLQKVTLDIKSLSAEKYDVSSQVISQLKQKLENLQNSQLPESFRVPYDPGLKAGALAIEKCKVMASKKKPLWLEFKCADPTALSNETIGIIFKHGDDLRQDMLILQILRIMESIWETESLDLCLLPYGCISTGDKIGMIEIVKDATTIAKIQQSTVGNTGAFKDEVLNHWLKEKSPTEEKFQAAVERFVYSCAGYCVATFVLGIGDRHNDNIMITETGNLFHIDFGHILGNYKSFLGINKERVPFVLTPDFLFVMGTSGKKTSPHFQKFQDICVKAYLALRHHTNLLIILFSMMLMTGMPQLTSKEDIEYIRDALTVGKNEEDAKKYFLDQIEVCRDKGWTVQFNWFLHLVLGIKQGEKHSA

IC50 [1]: 5800 nM | half-life [2]: 42 min | IC50 [3]: 1300 nM | IC50 [4]: 60 nM | IC50 [5]: 82 nM | IC50 [6]: 6200 nM | IC50 [7]: 7700 nM | AUC (Rattus norvegicus [8]): 1020 nM | IC50 [9]: 15400 nM
Compound: Cc1nc(NCCC#N)nc(-n2c(Nc3cc[nH]n3)nc3ccccc32)n1

fraction unbound [11]: 0.008 | solubility [12]: 156 µg/mL (≈ 485 µM) | bioavailability [13]: 20.7% | AUC (Rattus norvegicus [14]): 3.6 µM | IC50 [1]: 890 nM | AUC [15]: 2.03 µM·h | inhibition [16]: 78% | AUC (Rattus norvegicus [17]): 1490 nM | IC50 [3]: 600 nM | IC50 [4]: 81 nM | IC50 [5]: 100 nM | Vd [18]: 0.76 L/kg | Activity [19]: 71% | IC50 [6]: 3200 nM | inhibition [20]: 83% | half-life [21]: 33.6 min | IC50 [7]: 2200 nM | clearance [22]: 15.5 mL/min/kg | IC50 [9]: 4500 nM
Compound: CNc1nc(C)nc(-n2c(Nc3cc[nH]n3)nc3ccccc32)n1
inhibition (Rattus norvegicus [10]): Dose-dependent effect
